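Protocol summary: plate cells (96-well), add compound at 5 concentrations, incubate 48 h, interpolate endpoints linearly. TGI: concentration producing complete growth inhibition.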 *1 amine or outer side, *2 acyl side, *3 side chain or, on linkers, in order; H or OH if unused. Where a SMILES comes first, the peptide text is derived from it. [ ]: non-standard residue; d: D form. The star is where a group is joined. X32 = C[C@H](N[*:1])C(=O)C(C)(C)C(=O)[*:2]; Hmpa(2S,3S) = CC[C@H](C)[C@H](O)C(=O)O; NMeY = CN[C@@H](Cc1ccc(O)cc1)C(=O)O; NMeL = CN[C@@H](CC(C)C)C(=O)O; NMeV = CN[C@H](C(=O)O)C(C)C; Boc = CC(C)(C)OC(=O)*; βAla = NCCC(=O)O
Assays:
Assay in all cases: growth of human tumour cells (NCI), 48 h
[1] = tested on: SW-620 colon
[2] = tested on: OVCAR-4 ovarian
[3] = tested on: SNB-19 CNS
[4] = tested on: HCT-116 colon
[5] = tested on: MDA-MB-231 breast
[6] = tested on: SN12C renal
[7] = tested on: SF-539 CNS
[8] = tested on: RPMI-8226 leukemia
[9] = tested on: OVCAR-3 ovarian
[10] = tested on: HL-60(TB) leukemia
[11] = tested on: NCI-H460 lung

COCN1C(=O)[C@@H]2CCCN2C(=O)c2cc(N)ccc21
TGI [1]: > 100 µM | TGI [2]: > 100 µM | TGI [3]: > 100 µM | TGI [4]: > 100 µM | TGI [5]: > 100 µM | TGI [6]: > 100 µM | TGI [7]: > 100 µM

O=C1CC(c2ccccc2)n2cccc21 (configuration not stated)
TGI [1]: > 100 µM | TGI [8]: > 100 µM | TGI [2]: > 100 µM | TGI [3]: > 100 µM | TGI [4]: > 100 µM | TGI [5]: > 100 µM | TGI [9]: > 100 µM | TGI [6]: > 100 µM | TGI [7]: > 100 µM | TGI [10]: > 100 µM

C=C1CCC([N+](=O)[O-])[C@](C)(N=O)CC[C@@H]2C1CC2(C)C (some centres not stated)
TGI [1]: 47.2 µM | TGI [8]: > 100 µM | TGI [2]: 84.6 µM | TGI [11]: 39.6 µM | TGI [3]: 77.9 µM | TGI [4]: 32.1 µM | TGI [9]: 56.3 µM | TGI [6]: > 100 µM | TGI [10]: > 100 µM

COC(=O)C(Cc1c[nH]c2ccccc12)NC(=O)C(Cc1c[nH]c2ccccc12)NC(=O)C(Cc1c[nH]c2ccccc12)NC(=O)C(Cc1c[nH]c2ccccc12)NC(=O)C(Cc1c[nH]c2ccccc12)NC(=O)C(Cc1c[nH]c2ccccc12)NC(=O)C(Cc1c[nH]c2ccccc12)NC(=O)C(Cc1c[nH]c2ccccc12)NC(=O)OC(C)(C)C (configuration not stated) (Boc-WWWWWWWW-OMe; configuration not given here)
TGI [1]: > 100 µM | TGI [8]: > 100 µM | TGI [2]: > 100 µM | TGI [11]: > 100 µM | TGI [3]: > 100 µM | TGI [4]: > 100 µM | TGI [5]: > 100 µM | TGI [9]: > 100 µM | TGI [6]: > 100 µM | TGI [10]: 53.5 µM

Cc1ccnc(NC(NC(=O)c2ccccc2)(C(F)(F)F)C(F)(F)F)c1
TGI [1]: > 100 µM | TGI [8]: > 100 µM | TGI [2]: > 100 µM | TGI [3]: > 100 µM | TGI [4]: > 100 µM | TGI [5]: > 100 µM | TGI [9]: > 100 µM | TGI [6]: > 100 µM | TGI [7]: > 100 µM | TGI [10]: > 100 µM

COC(=O)C(CCSC)NC(=O)Cc1ccc(C(=O)c2ccccc2)cc1 (configuration not stated)
TGI [1]: > 100 µM | TGI [8]: > 100 µM | TGI [2]: > 100 µM | TGI [11]: > 100 µM | TGI [3]: > 100 µM | TGI [4]: > 100 µM | TGI [5]: > 100 µM | TGI [9]: > 100 µM | TGI [6]: > 100 µM | TGI [10]: > 100 µM

NC(N)=Nc1ccc(CC(N)C(=O)O)cc1 (configuration not stated)
TGI [1]: > 12.5 µM | TGI [8]: > 12.5 µM | TGI [2]: > 12.5 µM | TGI [4]: > 12.5 µM | TGI [5]: > 12.5 µM | TGI [9]: > 12.5 µM | TGI [6]: > 12.5 µM | TGI [10]: > 12.5 µM

COc1ccc2c(c1)CCc1c-2n(CCN2CCCCC2)c2ccc(OC)cc12
TGI [1]: > 100 µM | TGI [8]: > 100 µM | TGI [2]: > 100 µM | TGI [11]: > 100 µM | TGI [3]: > 100 µM | TGI [4]: > 100 µM | TGI [5]: > 100 µM | TGI [9]: > 100 µM | TGI [6]: > 100 µM

CC[C@H](C)[C@@H]1OC(=O)CCNC(=O)[C@@H](C)NC(=O)C(C)(C)C(=O)[C@H](C)NC(=O)[C@H](Cc2ccc(OC)cc2)N(C)C(=O)[C@H](C(C)C)N(C)C(=O)CNC(=O)[C@H](CC(C)C)N(C)C(=O)CNC1=O (cyclo(G[NMeL]G[NMeV][NMeY](Me)[X32][dA][βAla][Hmpa(2S,3S)]))
TGI [1]: > 50 µM | TGI [8]: 11.1 µM | TGI [2]: 3.51 µM | TGI [11]: > 50 µM | TGI [3]: 9.63 µM | TGI [4]: > 27.8 µM | TGI [5]: 11.2 µM | TGI [9]: 14.3 µM | TGI [6]: > 50 µM | TGI [7]: > 33.6 µM

O=c1/c(=C/c2ccc(-c3ccc(Cl)cc3Cl)o2)sc2n1[C@@H](c1ccc(Cl)cc1)C=C(c1cc(F)c(Cl)cc1Cl)N=2
TGI [1]: > 100 µM | TGI [8]: > 100 µM | TGI [2]: > 100 µM | TGI [11]: > 100 µM | TGI [3]: > 100 µM | TGI [4]: > 100 µM | TGI [5]: 59.2 µM | TGI [6]: > 100 µM | TGI [7]: > 100 µM
